Holding throughout (format): cell-based
Test [1] deals with T1, human recombinant prostanoid EP1 receptor (Homo sapiens, UniProt P34995).
T1 construct: expressed in transfected cells
T1 sequence (P34995 1-402): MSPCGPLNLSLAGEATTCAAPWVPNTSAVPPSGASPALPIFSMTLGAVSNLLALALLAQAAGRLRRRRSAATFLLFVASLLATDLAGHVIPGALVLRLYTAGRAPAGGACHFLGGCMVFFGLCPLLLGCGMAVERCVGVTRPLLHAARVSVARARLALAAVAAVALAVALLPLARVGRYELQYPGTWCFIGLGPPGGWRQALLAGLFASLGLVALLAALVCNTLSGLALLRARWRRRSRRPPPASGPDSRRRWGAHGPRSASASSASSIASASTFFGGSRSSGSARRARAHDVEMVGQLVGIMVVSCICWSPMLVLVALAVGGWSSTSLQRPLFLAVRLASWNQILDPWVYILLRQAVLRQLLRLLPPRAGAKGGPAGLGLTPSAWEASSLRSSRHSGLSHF
The experiment in a line: FLIPR Ca2+ signaling, PG antagonist activity, EP1. The note with it: antagonism of standard agonist PGE2, HEK-293 EBNA stable cells. Here is the method: (§1) The above compounds were tested for PG antagonist activity as follows using human recombinant prostanoid receptor (DP1, EP1-4, FP, IP and TP) stable cell lines:
(§2) In order to measure the response of Gs and Gi coupled prostanoid receptors as a Ca^2+ signal, chimeric G protein cDNAs were used. Stable cell lines over-expressing human prostanoid DP1, EP1-4, FP, IP, and TP receptors were established as follows:
(§3) Briefly, human prostanoid DP1, EP2, and EP4 receptor cDNAs were co-transfected with chimeric Gqs cDNA containing a haemagglutanin (HA) epitope; human prostanoid EP3 receptors were co-transfected with chimeric Gqi-HA; human EP1, FP, IP, and TP receptor cDNAs were expressed with no exogenous G-proteins. Gqs and Gqi chimeric cDNAs (Molecular Devices, Sunnyvale, Calif., U.S.A.), as well as cDNAs of prostanoid receptors, were cloned into a pCEP4 vector with a hygromycin B selection marker. Transfection into HEK-293 EBNA (Epstein-Barr virus nuclear antigen) cells was achieved by the FuGENE 6 transfection Reagent (Roche Applied Science, Indianapolis, Ind., USA). Stable transfectants were selected according to hygromycin resistance. Because Gqs and Gqi contained an HA epitope, G-protein expression was detected by Western blotting analysis using anti-mouse HA monoclonal antibody and horseradish peroxidase (HRP)-conjugated secondary antibody, while functional expression of prostanoid receptors was detected by FLIPR screening (Matias et al., 2004). These stable cell lines were validated using previously published antagonists at 10 μM against serial dilutions of standard agonists by FLIPR functional assays for Ca^2− Signaling (as described below).
(§4) Ca^2+ signaling studies were performed using a FLIPR TETRA system (Molecular Devices, Sunnyvale, Calif., USA) in the 384-format. This is a high-throughput instrument for cell-based assays to monitor Ca^2+ signaling associated with GPCRs and ion channels. Cells were seeded at a density of 5×10^4 cells/well in BioCoat poly-D-lysine coated, black wall, clear bottom 384-well plates (BD Biosciences, Franklin lakes, N.J., USA) and allowed to attach overnight in an incubator at 37° C. The cells were then washed twice with HBSS-HEPES buffer (Hanks' balanced salt solution without bicarbonate and phenol red, 20 mM HEPES, pH 7.4) using an ELx405 Select CW Microplate Washer (BioTek, Winooski, Vt., USA). After 60 min of dye-loading in the dark using the Ca^2+-sensitive dye Fluo-4AM (Invitrogen, Carlsbad, Calif., USA), at a final concentration of 2×10^−6M, the plates were washed 4 times with HBSS-HEPES buffer to remove excess dye and leaving 50 μl of buffer in each well. The plates were then placed in the FLIPR TETRA instrument and allowed to equilibrate at 37° C. AGN-211377 was added in a 25 μl volume to each well to give final concentrations of 0.1 μM, 0.3 μM, 1 μM, 3 μM, 10 μM, and 30 μM; or 0.067 μM, 0.1 μM, 0.2 μM, 0.3 μM, 0.67 μM, and 1 μM for cells over-expressing TP receptors. After 4.5 minutes, a 7-point serial dilution of the standard agonist for the corresponding receptor, in a 25 μl volume was injected at the final concentrations from 10^−11M to 10^−5M in 10-fold serial dilution increments for cells expressing human recombinant DP1, EP1, EP2, EP3, EP4, FP, and IP receptors. The dose range for the standard agonist for human recombinant TP receptors was from 10^−12M to 10^−6M. HBSS-HEPES buffer was used as the negative control for the standard agonists. Cells were excited with LED (light emitting diode) excitation at 470-495 nm and emission was measured through an emission filter at 515-575 nm. Assay plates were read for 3.5 minutes using the FLIPR^TETRA. The peak increase in fluorescence intensity was recorded for each well. On each plate, negative controls, dose response of positive controls, and co-treatments of antagonist-agonist for each dose were in triplicates. Standard agonists were as follows: DP=BW 245C, EP1-EP4=PGE2, FP=17-phenyl-PGF2α, IP=Cicaprost, and TP=U-46619. […]

Test [2] concerns the target T2, human recombinant prostanoid DP1 receptor (Homo sapiens, UniProt Q13258).
T2 construct: expressed in transfected cells; co-transfected with chimeric Gqs-HA
T2 sequence (Q13258 1-359): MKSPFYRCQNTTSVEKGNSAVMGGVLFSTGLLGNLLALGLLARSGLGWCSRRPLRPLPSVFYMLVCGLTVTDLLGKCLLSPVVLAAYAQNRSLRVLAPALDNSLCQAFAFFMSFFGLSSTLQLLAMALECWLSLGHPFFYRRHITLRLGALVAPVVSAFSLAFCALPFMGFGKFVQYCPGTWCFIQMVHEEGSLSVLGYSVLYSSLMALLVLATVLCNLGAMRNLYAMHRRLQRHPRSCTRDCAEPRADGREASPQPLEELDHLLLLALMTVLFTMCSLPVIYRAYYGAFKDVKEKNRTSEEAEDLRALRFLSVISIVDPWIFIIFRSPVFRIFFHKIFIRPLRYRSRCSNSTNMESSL
The experiment in a line: FLIPR Ca2+ signaling, PG antagonist activity, DP. The note with it: antagonism of standard agonist BW 245C, HEK-293 EBNA stable cells with chimeric Gqs. The procedure:
as §1, §2, §3, §4

Test [3] addresses T3, human recombinant prostanoid EP4 receptor (Homo sapiens, UniProt P35408).
T3 construct: expressed in transfected cells; co-transfected with chimeric Gqs-HA
As to the kind of experiment: FLIPR Ca2+ signaling, PG antagonist activity, EP4. The note with it: antagonism of standard agonist PGE2, HEK-293 EBNA stable cells with chimeric Gqs. The procedure: as §1, §2, §3, §4

T3 sequence (P35408 whole entry): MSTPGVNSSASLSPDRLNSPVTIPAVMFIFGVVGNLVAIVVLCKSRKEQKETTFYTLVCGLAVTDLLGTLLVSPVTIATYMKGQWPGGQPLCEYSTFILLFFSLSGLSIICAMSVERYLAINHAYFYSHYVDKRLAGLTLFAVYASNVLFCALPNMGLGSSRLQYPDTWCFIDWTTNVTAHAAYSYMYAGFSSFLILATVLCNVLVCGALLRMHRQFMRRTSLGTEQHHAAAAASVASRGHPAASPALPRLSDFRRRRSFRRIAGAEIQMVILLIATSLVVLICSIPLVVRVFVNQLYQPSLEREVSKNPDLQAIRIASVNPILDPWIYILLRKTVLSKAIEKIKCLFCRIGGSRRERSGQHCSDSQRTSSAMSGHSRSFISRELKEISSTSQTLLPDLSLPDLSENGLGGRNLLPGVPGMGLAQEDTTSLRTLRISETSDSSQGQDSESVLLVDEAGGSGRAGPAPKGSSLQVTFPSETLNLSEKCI

Turning to `CCC(CC)COc1ccc(Br)cc1Cn1ncc(C(=O)O)c1C` [Example 2, 1-[5-bromo-2-(2-ethyl-butoxy)-benzyl]-5-methyl-1H-pyrazole-4-carboxylic acid], the Kb in test [1] was determined as 33 nM; in test [2] it was 600 nM; in test [3] it was 380 nM.
Consider `CCC(CC)COc1ccc(C(F)(F)F)cc1Cn1cc(C(=O)O)c(C)n1` [Example 9, 1-[2-(2-ethyl-butoxy)-5-trifluoromethyl-benzyl]-3-methyl-1H-pyrazole-4-carboxylic acid], for which the Kb is 440 nM in test [1], 3900 nM in test [2] and at least 10000 nM in test [3].
Regarding `CCC(CC)COc1ccc(Br)cc1Cn1ncc(CC(=O)O)c1C` [Example 1, {1-[5-bromo-2-(2-ethyl-butoxy)-benzyl]-5-methyl-1H-pyrazol-4-yl}-acetic acid], the Kb in test [1] amounted to 170 nM; in test [2], 400 nM; in test [3] it was 100 nM.
Consider `CCCc1c(C(=O)O)cnn1Cc1cc(Cl)ccc1OCC(CC)CC` [Example 7, 1-[5-chloro-2-(2-ethyl-butoxy)-benzyl]-5-propyl-1H-pyrazole-4-carboxylic acid], for which the Kb in test [1] was 640 nM; in test [2], at least 10000 nM; in test [3], 3300 nM.
On to `Cc1c(C(=O)O)cnn1Cc1cc(Cl)ccc1OCC(C)C` [Example 11, 1-(5-chloro-2-isobutoxy-benzyl)-5-methyl-1-pyrazole-4-carboxylic acid], for which the values for the Kb in test [1], in test [2] and in test [3] were 30 nM, 4550 nM and 3300 nM, respectively.
Consider `CCC(CC)COc1ccc(Cl)cc1Cn1ncc(C(=O)O)c1C` [Example 10, 1-[5-chloro-2-(2-ethyl-butoxy)-benzyl]-5-methyl-1H-pyrazole-4-carboxylic acid], for which the values for the Kb in test [1], in test [2] and in test [3] were 50 nM, 940 nM and 500 nM, respectively.
With `Cc1c(C(=O)O)cnn1Cc1cc(Br)ccc1OCC(C)C` [Example 13, 1-(5-bromo-2-isobutoxy-benzyl)-5-methyl-1H-pyrazole-4-carboxylic acid], the Kb is 30 nM in test [1], 3500 nM in test [2] and 2100 nM in test [3].
In the case of `CCC(CC)COc1ccc(C(F)(F)F)cc1Cn1ncc(C(=O)O)c1C` [Example 8, 1-[2-(2-ethyl-butoxy)-5-trifluoromethyl-benzyl]-5-methyl-1H-pyrazole-4-carboxylic acid], the Kb in test [1] is 40 nM; in test [2] it was 1400 nM; in test [3] it was 1600 nM.
For `CCC(CC)COc1ccc(Cl)cc1Cn1cc(C(=O)O)cn1` [Example 4, 1-[5-chloro-2-(2-ethyl-butoxy)-benzyl]-1H-pyrazole-4-carboxylic acid], the Kb in test [1] is 140 nM; in test [2], 1400 nM; in test [3] it was 4800 nM.
Take `CCC(CC)COc1ccc(Br)cc1Cn1cc(C(=O)O)c(C)n1` [Example 3]: the Kb in test [1] came out at 30 nM; in test [2], 1100 nM; in test [3] it was 1300 nM.
Taken in the same sequence, the figures for `CCC(CC)COc1ccc(OC(F)(F)F)cc1Cn1ncc(C(=O)O)c1C` [Example 15, 1-[2-(2-ethyl-butoxy)-5-trifluoromethoxy-benzyl]-5-methyl-1H-pyrazole-4-carboxylic acid] were 45 nM, 780 nM and 1500 nM.
`CCC(CC)COc1ccc(Br)cc1Cn1ncc(C(=O)O)c1N` [Example 16, 5-amino-1-[5-bromo-2-(2-ethyl-butoxy)-benzyl]-1H-pyrazole-4-carboxylic acid]: the Kb in test [1] came out at 60 nM; in test [2], 1600 nM; in test [3], 300 nM.
Regarding `Cc1c(C(=O)O)cnn1Cc1cc(Cl)ccc1OCC1CCCC1` [Example 12, 1-(5-chloro-2-cyclopentylmethoxy-benzyl)-5-methyl-1H-pyrazole-4-carboxylic acid], the Kb in test [1] came to 30 nM; in test [2] it was 2500 nM; in test [3], 600 nM.
For `CCC(CC)COc1ccc(Cl)cc1Cn1nc(C)c(C(=O)O)c1C` [Example 5, 1-[5-chloro-2-(2-ethyl-butoxy)-benzyl]-3,5-dimethyl-1H-pyrazole-4-carboxylic acid], the results for the Kb in test [1], in test [2] and in test [3] were 20 nM, 350 nM and 860 nM, respectively.
As for `Cc1c(C(=O)O)cnn1Cc1cc(Br)ccc1OCC(C)(C)C` [Example 14, 1-[5-bromo-2-(2,2-dimethyl-propoxy)-benzyl]-5-methyl-1H-pyrazole-4-carboxylic acid], the Kb in test [1] came out at 30 nM; in test [2], 3400 nM; in test [3], 1300 nM.
Turning to `CCCc1nn(Cc2cc(Cl)ccc2OCC(CC)CC)cc1C(=O)O` [Example 6, 1-[5-chloro-2-(2-ethyl-butoxy)-benzyl]-3-propyl-1H-pyrazole-4-carboxylic acid], the Kb in test [1] came to 1500 nM; in test [2] it was 5600 nM; in test [3], 4900 nM.

As usually defined, the Kb is the equilibrium dissociation constant of an antagonist, usually derived from a functional assay.

The values are drawn from patent publication US9035071B2, “Compounds acting at multiple prostaglandin receptors giving a general anti-inflammatory response” (Allergan, Inc., priority 2011, dated 2015).
